The results in this text go back to PubChem BioAssay AID248 (DTP/NCI, 2004).

This assay relates to L1210 leukemia ip in BDF1 mice, survival T/C. Kind of assay: NCI In Vivo Anticancer Drug Screen. Data for tumor model L1210 Leukemia (intraperitoneal) in B6D2F1 (BDF1) mice. As to conditions: higher = longer survival. Put shortly:
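Survival endpoint. Drug-treated group vs vehicle group, expressed as T divided by C. Tumor passaged by transplantation.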

“And” between values parts separate entries of the source, which are not always exact repeats. Equal entries are not always repeated. Toxic doses and inconclusive results are not listed.

Take `N/C(=N\O)c1cn(C2OC(CO)C(O)C2O)c2ncnc(N)c12` (stereo unspecified): the T/C is, setting by setting: (endpoint: mean survival time, dose: 0.2 mg/kg/injection, schedule: Q01DX015 (ip), vehicle: carboxymethylcellulose (CMC)) 104 % of control; (endpoint: mean survival time, dose: 0.25 mg/kg/injection, schedule: Q01DX009 (ip), vehicle: saline) 117 % of control; (endpoint: mean survival time, dose: 0.25 mg/kg/injection, schedule: Q03HX024 (ip), vehicle: saline) 123 % of control; (endpoint: mean survival time, dose: 0.3 mg/kg/injection, schedule: Q01DX015 (ip), vehicle: carboxymethylcellulose (CMC)) 117 % of control; (endpoint: mean survival time, dose: 0.39 mg/kg/injection, schedule: Q01DX009 (ip), vehicle: saline) 150 % of control; (endpoint: mean survival time, dose: 0.44 mg/kg/injection, schedule: Q01DX015 (ip), vehicle: carboxymethylcellulose (CMC)) 117 % of control. Further, the T/C runs as follows: (endpoint: mean survival time, dose: 0.5 mg/kg/injection, schedule: Q01DX005 (ip), vehicle: saline) 118 % of control; (endpoint: mean survival time, dose: 0.67 mg/kg/injection, schedule: Q01DX015 (ip), vehicle: carboxymethylcellulose (CMC)) 120 % of control; (endpoint: mean survival time, dose: 0.78 mg/kg/injection, schedule: Q01DX005 (ip), vehicle: saline) 111 % of control; (endpoint: mean survival time, dose: 0.78 mg/kg/injection, schedule: Q01DX009 (ip), vehicle: saline) 150 % of control; (endpoint: mean survival time, dose: 1.0 mg/kg/injection, schedule: Q03HX008 (ip), vehicle: saline) 160 % of control; (endpoint: mean survival time, dose: 1.0 mg/kg/injection, schedule: Q03HX024 (ip), vehicle: saline) 192 % of control. Besides, the T/C runs as follows: (endpoint: mean survival time, dose: 1.3 mg/kg/injection, schedule: Q01DX009 (ip), vehicle: saline) 159 % of control; (endpoint: mean survival time, dose: 1.56 mg/kg/injection, schedule: Q01DX005 (ip), vehicle: saline) 110 % of control; (endpoint: mean survival time, dose: 1.56 mg/kg/injection, schedule: Q01DX009 (ip), vehicle: saline) 204 % of control; (endpoint: mean survival time, dose: 2.0 mg/kg/injection, schedule: Q01DX009 (ip), vehicle: saline) 158 % of control; (endpoint: mean survival time, dose: 2.0 mg/kg/injection, schedule: Q03HX024 (ip), vehicle: saline) 102 % of control and 107 % of control; (endpoint: mean survival time, dose: 3.0 mg/kg/injection, schedule: Q01DX009 (ip), vehicle: saline) 151 % of control. For the same compound, the T/C is 121 % of control (endpoint: mean survival time, dose: 3.12 mg/kg/injection, schedule: Q01DX001 (ip), vehicle: other); 156 % of control (endpoint: mean survival time, dose: 3.12 mg/kg/injection, schedule: Q01DX005 (ip), vehicle: saline); 109 % of control (endpoint: mean survival time, dose: 3.12 mg/kg/injection, schedule: Q01DX009 (ip), vehicle: saline); 121 % of control (endpoint: mean survival time, dose: 3.13 mg/kg/injection, schedule: Q01DX001 (ip), vehicle: water); 117 % of control (endpoint: mean survival time, dose: 4.0 mg/kg/injection, schedule: Q01DX001 (ip), vehicle: saline); 152 % of control (endpoint: mean survival time, dose: 4.0 mg/kg/injection, schedule: Q01DX005 (ip), vehicle: saline). Also, the T/C reads like this: (endpoint: mean survival time, dose: 4.0 mg/kg/injection, schedule: Q01DX009 (ip), vehicle: saline) 153 % of control and 180 % of control; (endpoint: mean survival time, dose: 4.0 mg/kg/injection, schedule: Q01DX009 (oral), vehicle: saline) 96 % of control; (endpoint: mean survival time, dose: 4.0 mg/kg/injection, schedule: Q08DX002 (ip), vehicle: saline) 122 % of control; (endpoint: mean survival time, dose: 4.4 mg/kg/injection, schedule: Q01DX001 (ip), vehicle: carboxymethylcellulose (CMC)) 124 % of control; (endpoint: mean survival time, dose: 5.0 mg/kg/injection, schedule: Q01DX001 (ip), vehicle: carboxymethylcellulose (CMC)) 124 % of control; (endpoint: mean survival time, dose: 5.0 mg/kg/injection, schedule: Q01DX009 (ip), vehicle: saline) 158 % of control. Besides, the T/C is 108 % of control (endpoint: mean survival time, dose: 5.0 mg/kg/injection, schedule: Q01DX015 (ip), vehicle: carboxymethylcellulose (CMC)); 122 % of control (endpoint: mean survival time, dose: 6.25 mg/kg/injection, schedule: Q01DX001 (ip), vehicle: other); 114 % of control (endpoint: mean survival time, dose: 6.25 mg/kg/injection, schedule: Q01DX001 (ip), vehicle: water); 113 % of control (endpoint: mean survival time, dose: 6.25 mg/kg/injection, schedule: Q01DX009 (ip), vehicle: saline); 124 % of control (endpoint: mean survival time, dose: 8.0 mg/kg/injection, schedule: Q01DX001 (ip), vehicle: saline); 150 % of control (endpoint: mean survival time, dose: 8.0 mg/kg/injection, schedule: Q01DX005 (ip), vehicle: saline). The T/C runs as follows: (endpoint: mean survival time, dose: 8.0 mg/kg/injection, schedule: Q01DX009 (ip), vehicle: saline) 119 % of control and 121 % of control; (endpoint: mean survival time, dose: 8.0 mg/kg/injection, schedule: Q01DX009 (oral), vehicle: saline) 95 % of control; (endpoint: mean survival time, dose: 8.0 mg/kg/injection, schedule: Q04DX003 (ip), vehicle: saline) 151 % of control and 156 % of control; (endpoint: mean survival time, dose: 16.0 mg/kg/injection, schedule: Q01DX001 (ip), vehicle: saline) 119 % of control; (endpoint: mean survival time, dose: 16.0 mg/kg/injection, schedule: Q01DX001 (oral), vehicle: saline) 94 % of control; (endpoint: mean survival time, dose: 16.0 mg/kg/injection, schedule: Q01DX009 (oral), vehicle: saline) 95 % of control. For the same compound, the T/C runs as follows: (endpoint: mean survival time, dose: 16.0 mg/kg/injection, schedule: Q04DX003 (ip), vehicle: saline) 186 % of control; (endpoint: mean survival time, dose: 22.5 mg/kg/injection, schedule: Q01DX001 (ip), vehicle: saline) 151 % of control; (endpoint: mean survival time, dose: 25.0 mg/kg/injection, schedule: Q01DX001 (ip), vehicle: other) 157 % of control; (endpoint: mean survival time, dose: 25.0 mg/kg/injection, schedule: Q01DX001 (ip), vehicle: water) 152 % of control; (endpoint: mean survival time, dose: 32.0 mg/kg/injection, schedule: Q01DX001 (oral), vehicle: saline) 97 % of control; (endpoint: mean survival time, dose: 32.0 mg/kg/injection, schedule: Q01DX009 (oral), vehicle: saline) 94 % of control. Further, the T/C is 154 % of control (endpoint: mean survival time, dose: 32.0 mg/kg/injection, schedule: Q08DX002 (ip), vehicle: saline); 150 % of control (endpoint: mean survival time, dose: 50.0 mg/kg/injection, schedule: Q01DX001 (ip), vehicle: other); 159 % of control (endpoint: mean survival time, dose: 50.0 mg/kg/injection, schedule: Q01DX001 (ip), vehicle: water); 94 % of control (endpoint: mean survival time, dose: 64.0 mg/kg/injection, schedule: Q01DX001 (oral), vehicle: saline); 90 % of control (endpoint: mean survival time, dose: 128.0 mg/kg/injection, schedule: Q01DX001 (oral), vehicle: saline); 118 % of control and 122 % of control (endpoint: median survival time, dose: 0.5 mg/kg/injection, schedule: Q01DX009 (ip), vehicle: saline). For the setting “endpoint: median survival time, dose: 1.0 mg/kg/injection, schedule: Q01DX009 (ip), vehicle: saline”, the T/C was 122 % of control.
As to `CCC(CC)COCCCN`, the T/C by setting is: (endpoint: mean survival time, dose: 12.5 mg/kg/injection, schedule: Q01DX009 (ip), vehicle: saline with Tween-80) 97 % of control; (endpoint: mean survival time, dose: 12.5 mg/kg/injection, schedule: Q04DX003 (ip), vehicle: saline with Tween-80) 97 % of control; (endpoint: mean survival time, dose: 25.0 mg/kg/injection, schedule: Q01DX009 (ip), vehicle: saline with Tween-80) 98 % of control; (endpoint: mean survival time, dose: 25.0 mg/kg/injection, schedule: Q04DX003 (ip), vehicle: saline with Tween-80) 95 % of control; (endpoint: mean survival time, dose: 50.0 mg/kg/injection, schedule: Q01DX009 (ip), vehicle: saline with Tween-80) 93 % of control; (endpoint: mean survival time, dose: 50.0 mg/kg/injection, schedule: Q04DX003 (ip), vehicle: saline with Tween-80) 94 % of control.
For `C[n+]1ccccc1/C=C/c1ccc2c(c1)OCO2`, the T/C runs as follows: (endpoint: mean survival time, dose: 12.5 mg/kg/injection, schedule: Q01DX009 (ip), vehicle: Klucel (hydroxypropylcellulose) (HPC)) 94 % of control; (endpoint: mean survival time, dose: 12.5 mg/kg/injection, schedule: Q04DX003 (ip), vehicle: Klucel (hydroxypropylcellulose) (HPC)) 95 % of control; (endpoint: mean survival time, dose: 25.0 mg/kg/injection, schedule: Q01DX009 (ip), vehicle: Klucel (hydroxypropylcellulose) (HPC)) 92 % of control; (endpoint: mean survival time, dose: 25.0 mg/kg/injection, schedule: Q04DX003 (ip), vehicle: Klucel (hydroxypropylcellulose) (HPC)) 94 % of control.
As for `Cc1cc(=O)c(O)c(N(C)C)o1`, the T/C (endpoint: mean survival time, dose: 100.0 mg/kg/injection, schedule: Q04DX002 (ip), vehicle: saline with Tween-80) was 102 % of control; the T/C (endpoint: mean survival time, dose: 200.0 mg/kg/injection, schedule: Q04DX002 (ip), vehicle: saline with Tween-80) was 102 % of control; the T/C (endpoint: mean survival time, dose: 400.0 mg/kg/injection, schedule: Q04DX002 (ip), vehicle: saline with Tween-80) was 115 % of control.
For the compound `CC(=O)OC1CCC2(C)C(=CCC3C2CCC2(C)C(/C(C)=N/O)=CCC32)C1` (stereo unspecified), the T/C was 96 % of control (endpoint: mean survival time, dose: 100.0 mg/kg/injection, schedule: Q01DX009 (ip), vehicle: saline with Tween-80); 100 % of control (endpoint: mean survival time, dose: 200.0 mg/kg/injection, schedule: Q01DX009 (ip), vehicle: saline with Tween-80); 91 % of control (endpoint: mean survival time, dose: 400.0 mg/kg/injection, schedule: Q01DX009 (ip), vehicle: saline with Tween-80).
